In one assay the test system is HHV-6. The assay is described as follows: HHV-6 ELISA in HSB-2 cells. It is filed as cell-based, human herpes virus 6 (HHV 6). How it is done: (c) HHV-6. In this case, enzyme-linked immunosorbent assay (ELISA) was performed in covalent amine plates (Costar, Cambridge, Mass.). The plates were activated by the addition of a homobifunctional crosslinking agent, bis(sulfosuccinimidyl) suberate, which was dissolved at 1 mg/mL in 30 mL of phosphate buffered saline (PBS: 137 mM NaCl, 2.7 mM KCl, 4.3 mM Na2HPO4, 1.4 mM KH2PO4, pH 7.4) and 300 μL of the crosslinker was added to each well in the covalent plate. The crosslinker reacted with the amine function on the plate for 30 min at room temperature. The byproduct, sodium N-hydroxysuccinimide sulfite, was removed by decanting and washing the plate twice with PBS. Samples consisting of 150 μl of mixed suspended HSB2 cells from the original drug-treated plate were solubilized in an equal volume of 10% Triton X-100 in coating buffer (15 mM Na2CO3, […] NaHCO3, pH 9.6). The plate was covered and then incubated for 1 h at 37° C. in a 5% CO2 atmosphere. These binding conditions facilitated covalent attachment of the antigen to the free end of the crosslinker.
After covalent binding, the antigen solution was decanted and the plate was washed six times in HEPES buffered saline (Shipman, C., Jr., Proc. Soc. Exp. Biol. 130:305-310 (1969)) with 0.05% Tween 20 (HBS-T ), soaking for three min for each wash. […] Absorbance in each well was determined at 450/570 nm.
In general terms: An ELISA detects its analyte on a solid surface through an enzyme-linked reagent.

The test system of the next assay is HCMV. Put plainly: HCMV plaque reduction assay in HFF cells. It counts as cell-based, Human CMV (HCMV). The following applies: HFF cells; plaque reduction. How it is done: Cells and viruses. The routine growth and passage of KB cells was performed in monolayer cultures using minimal essential medium (MEM) with either Hanks salts [MEM(H)] or Earle salts [MEM(E)] supplemented with 10% calf serum. The sodium bicarbonate concentration was varied to meet the buffering capacity required. Cultures of diploid human foreskin fibroblasts (HFF) or MRC-5 cells were grown in medium consisting of MEM(E) with 10% fetal bovine serum. Cells were passaged at 1:2 to 1:10 dilutions according to conventional procedures by using 0.05% trypsin plus 0.02% EDTA in a HEPES buffered salt solution (HBS) (Shipman, C., Jr., Proc. Soc. Exp. Biol. 130:305-310 (1969)) as described previously. Turk, S. R., et al., Antimicrob. Agents Chemother. 31:544-550 (1987). HFF and MRC-5 cells were passaged only at 1:2 dilutions. CEM cells were maintained in suspension culture as detailed previously. Kucera, L. S., et al., AIDS Res. Human Retroviruses 9:307-314 (1993).
Virological procedures. Stock HCMV was prepared by infecting HFF cells at a multiplicity of infection (m.o.i.) of <0.01 plaque-forming units (p.f.u.) per cell. Cell growth medium was changed every four days until cytopathology was evident in all cells (approximately 21 days). Supernatant fluids were retained as the virus stock. High titer HSV-1 stocks were prepared by infecting KB cells at an m.o.i. of <0.1 as detailed previously. Turk, S. R., et al., Antimicrob. Agents Chemother. 31:544-550 (1987). Virus titers were determined using monolayer cultures of HFF cells for HCMV and monolayer cultures of BSC-1 cells for HSV-1 as described earlier. Prichard, M. N., et al., J. Virol. Methods 28:101-106 (1990). Briefly, HFF or BSC-1 cells were planted as described above in 96-well cluster dishes and incubated overnight at 37° C. in a humidified 3% CO297% air atmosphere. The next day cultures were inoculated with HCMV or HSV-1 and serially diluted 1:3 across the remaining eleven columns of the 96-well plate. Cultures were incubated at 37° C. for 2 hr to permit virus adsorption and then virus inoculum was replaced with 0.2 mL of fresh medium. Cultures were incubated for seven days for HCMV, two or three days for HSV-1, medium was removed, and the cell sheets were stained with 0.1% crystal violet in 20% methanol. Plaques were enumerated under 20-fold magnification in wells having the dilution which gave 5 to 20 plaques per well. Virus titers were calculated according to the following Formula: Titer (p.f.u./mL)=number of plaques×5×3^n; where n represents the nth dilution of the virus used to infect the well in which plaques were enumerated.
(a) HCMV. The effect of compounds on the replication of HCMV has been measured using a plaque reduction assay. HFF cells in 24-well cluster dishes were infected with approximately 100 p.f.u. of HCMV per cm^2 cell sheet using the procedures detailed above. Following virus adsorption, compounds dissolved in growth medium were added to duplicate wells in three to six selected concentrations. Following incubation at 37° C. for 7 to 10 days, cell sheets were fixed, stained with crystal violet and microscopic plaques enumerated as described above. Drug effects were calculated as a percentage of reduction in number of plaques in the presence of each drug concentration compared to the number observed in the absence of drug. Ganciclovir (DHPG) was used as a positive control in all experiments.
Data Analysis. Dose-response relationships were constructed by linearly regressing the percent inhibition of parameters derived in the preceding sections against log drug concentrations. Fifty-percent inhibitory (IC50) concentrations were calculated from the regression lines. Samples containing positive controls (acyclovir for HSV-1, ganciclovir for HCMV, and 2-acetylpyridine thiosemicarbazone for cytotoxicity) were used in all assays.
In general terms: Plaques are areas of infected cells; plaque reduction assays count them against a control.

The test system of assay [1] is murine cytomegalovirus (MCMV). The assay is described as follows: Mortality of mice infected with murine cytomegalovirus. It counts as in vivo. How it is done: Compounds 1 (B=adenin-N^9-yl and guanin-N^9-yl) were evaluated in mice infected with murine cytomegalovirus (MCMV). Mice were infected intraperitonealy with sufficient MCMV to produce 90 to 100% mortality. Compounds were administered once daily for five days at doses of 5.6, 16.7 and 50 mg/kg by intraperitoneal injection in a 0.4% suspension of carboxymethylcellulose. Ganciclovir was administered in sterile water at the same doses as a positive control drug. All compounds were administered to separate groups of 15 mice each at 6, 24, and 48 hours after infection with MCMV. Groups of 10 uninfected mice also received test compounds as toxicity controls at the doses listed above.

Results on one compound are retold here after US6958345B2, “2-hydroxymethylcyclopropylidene methylpurines and -pyrimidines as antiviral agents” (The Regents of the University of Michigan, priority 1997, dated 2005).

In general, IC50 refers to the concentration needed to halve the response being measured.

On to `Nc1ncnc2c1ncn2C=C1CC1CO` (stereo not drawn) [1 (B = adenine), Example 5, syn-N^9-(2-hydroxymethylcyclopropylidenemethyl)adenine], for which the IC50 was 3000 nM with HHV-6 and 2000 nM in the assay with HCMV. For the same compound, the “mortality of MCMV-infected mice” value in assay [1] (50 mg/kg i.p. once daily for five days, placebo 100%) is given as 33%. The “effect on mortality at lower doses or delayed administration” value in assay [1] (lower doses, administration delayed until 24 or 48 hours after infection) was “Decreasing effects”.
